Where two headings read alike, the source gives them in different places.
Columns and labels:
[1] = set-up: method as in PMID 34303214; conditions: rats, p.o. SPC 30 g crude drug/kg; doses of 1-4: 0.062, 0.11, 0.71, 1.31 mg/kg; cited from earlier work
[2] = Observed pharmacokinetics in rats after oral SPC (previous study); format: in vivo, rat; conditions: p.o. SPC
Caco-2 cell monolayer = system: Caco-2 cell monolayer; set-up: method as in PMID 36680806, PMID 26501241; conditions: Caco-2 cell monolayer model; cited from earlier work
[3] = Verification pharmacokinetic experiment in rats, SPC 60 g crude drug/kg by gavage, UFLC-MS/MS, DAS 2.0; format: in vivo, rat
Description: To validate the accuracy of PBPK models in predicting the pharmacokinetics of SPC constituents at different oral doses, the pharmacokinetic behavior of these four constituents from SPC in rats were analyzed by UFLC-MS/MS. The parameters were calculated using Drug and Statistics Software version 2.0, and then these validated values (Val.) were used to check the accuracy of the Calc. values and evaluated by FE.
The pharmacokinetic fitting results of rats given 60 g crude drug/kg body weight of SPC by gavage were verified by experiments. The verification experiment was conducted according to our previous pharmacokinetic study. In brief, 1.5 mL suspension of SPC was given to rats by oral administration; 300 μL blood samples from orbital venous at 0.083, 0.25, 0.5, 0.75, 1.0, 1.5, 2, 3, 4, 6, 8, and 12 h were collected and pretreated with heparin sodium. After centrifugation, the plasma samples were obtained and further processed for subsequent detection by UFLC-MS/MS; the detailed analysis method is shown in Supplementary Data (Table S1 and Figure S1). The concentration-time curve of each compound was gained, and the pharmacokinetic parameters were calculated using DAS 2.0 software (DAS 2.0, Mathematical Pharmacology Professional Committee of China, Shanghai, China). The results of these four constituents were compared with the PBPK parameters predicted in rats at an oral dose of 60 g crude drug/kg body weight of SPC.
1. The instrument and analytical conditions of UFLC-MS/MS method
4 constituents (1. 3′-methoxydadizein; 2. 8-O-methylretusin; 3. Daidzin; and 4. […]
The internal standard (IS) carbamazepine with a purity of more than 99 % was purchased from Beijing JK-chemical technology Co. Ltd., (Beijing China). Heparin sodium was gained from Tianjin biochemical pharmaceutical Co. Ltd, (Tianjin, China).
Ammonium acetate of HPLC grade, methanol and acetonitrile of LC-MS grade were purchased from Sigma (LOT# BCBK6717V, sigma-aldrich, Co., MO, USA) and Fisher (Fisher Corp., Fair lawn, NJ, USA) respectively. The experimental ultrapure water was prepared by Millipore Milli-Q ultrapure water preparation apparatus (Millipore Sigma, […]
The detailed information of Shimadzu UFLC-MS/MS 8050 liquid mass system equipped with Nexera X2UFLC liquid chromatography system and 8050 triple quadrupole mass spectrometers with an electrospray ionization source were listed in our previous study. The supporting LabSolution workstation was used for data […]
The separation without superposition of analytes in plasma sample was achieved on a Kinetex® C18 chromatographic column (100mm×2.1mm i.d.; 2.6 μm, 100 Å; Phenomenex, Inc., Torrance, CA, USA) assembled with a Phenomenex p/n AJ0-9000 C18 protection column. The mobile phase was consisted of 0.5 mM ammonium acetate in water (A) and ACN (B). The gradient elution program was selected ultimately as […]
95 % B (18.7–22 min). Column and automatic sampler temperature were set as 30 °C and 4 °C respectively. The flow rate of mobile phase was 0.35 mL/min while sample injection volume was 4 μL.
Multiple reaction monitoring (MRM) of positive or negative modes were used as scanning modes for the analytes and IS. Other essential parameters were successively optimized as: Nebulizing gas flow, 3 L/min; Heating gas flow, 10 L/min; Drying gas flow, 10 L/min; Interface temperature, 300 °C; DL temperature, 250 °C; Interface and detector voltage were each set as 3.0 kV and 1.8 kV. The detection parameters such as retention time (RT), dwell time (DT), quadrupole 1 pre-rod bias (Q1), collision energy […]
Table S1 The retention time and ion equivalent parameters of 4 constituents in rat […]
Constituents Retention Precursor Precursor Product time Pre energy Pre time (min) ion species ion ion (msec) Bias (V) Bias

[4] = compartment model parameters, DAS 2.0, rats p.o. SPC 60 g crude drug/kg, Mean, 5 rats
[5] = statistical moment parameters, DAS 2.0, rats p.o. SPC 60 g crude drug/kg, Mean, 5 rats
[6] = statistical moment parameters, DAS 2.0, rats p.o. SPC 60 g crude drug/kg, Mean, 5 rats, in µg·h²/mL

## COc1ccc(-c2coc3c(OC)c(O)ccc3c2=O)cc1 [Constituent 2, 8-O-methylretusin]
[1]
  AUC0→t Obs.: 9.7 ng·h/mL
  AUC0→∞ Obs.: 11.5 ng·h/mL
  Cmax Obs.: 13.6 ng/mL
[2]
  time of slight secondary absorption peak: 3 h
Caco-2 cell monolayer
  Papp: 24.8 ×10⁻⁶ cm/s
[3]; [4]
  K10: 6.671 h⁻¹
  K12: 0.394 h⁻¹
  K21: 0.474 h⁻¹
  Ka: 2.056 h⁻¹
  Tlag: 0 h
  V1/F: 12.043 L/kg
  t1/2Ka: 20.246 h
  t1/2α: 34.861 h
[3]; rat, plasma, oral, time 0.083 h, rats p.o. SPC 60 g crude drug/kg, doses of 1-4: 0.124, 0.22, 1.4, 2.62 mg/kg, 5 rats
  concentration at 0.083 h: 9 ng/mL
[3]; rat, plasma, oral, time 0.25 h, rats p.o. SPC 60 g crude drug/kg, doses of 1-4: 0.124, 0.22, 1.4, 2.62 mg/kg, 5 rats
  concentration at 0.25 h: 22.9 ng/mL
[3]; rat, plasma, oral, time 0.5 h, rats p.o. SPC 60 g crude drug/kg, doses of 1-4: 0.124, 0.22, 1.4, 2.62 mg/kg, 5 rats
  concentration at 0.5 h: 12.3 ng/mL
[3]; rat, plasma, oral, time 0.75 h, rats p.o. SPC 60 g crude drug/kg, doses of 1-4: 0.124, 0.22, 1.4, 2.62 mg/kg, 5 rats
  concentration at 0.75 h: 5.23 ng/mL
[3]; rat, plasma, oral, time 1 h, rats p.o. SPC 60 g crude drug/kg, doses of 1-4: 0.124, 0.22, 1.4, 2.62 mg/kg, 5 rats
  concentration at 1 h: 3.33 ng/mL
[3]; rat, plasma, oral, time 1.5 h, rats p.o. SPC 60 g crude drug/kg, doses of 1-4: 0.124, 0.22, 1.4, 2.62 mg/kg, 5 rats
  concentration at 1.5 h: 1.97 ng/mL
[3]; rat, plasma, oral, time 2 h, rats p.o. SPC 60 g crude drug/kg, doses of 1-4: 0.124, 0.22, 1.4, 2.62 mg/kg, 5 rats
  concentration at 2 h: 0.809 ng/mL
[3]; rat, plasma, oral, time 3 h, rats p.o. SPC 60 g crude drug/kg, doses of 1-4: 0.124, 0.22, 1.4, 2.62 mg/kg, 5 rats
  concentration at 3 h: 0.809 ng/mL
[3]; rat, plasma, oral, time 4 h, rats p.o. SPC 60 g crude drug/kg, doses of 1-4: 0.124, 0.22, 1.4, 2.62 mg/kg, 5 rats
  concentration at 4 h: 0.409 ng/mL
[3]; rat, plasma, oral, time 6 h, rats p.o. SPC 60 g crude drug/kg, doses of 1-4: 0.124, 0.22, 1.4, 2.62 mg/kg, 5 rats
  concentration at 6 h: 0.445 ng/mL
[3]; rat, plasma, oral, time 8 h, rats p.o. SPC 60 g crude drug/kg, doses of 1-4: 0.124, 0.22, 1.4, 2.62 mg/kg, 5 rats
  concentration at 8 h: 0.161 ng/mL
[3]; rat, plasma, po, 0.22 mg/kg, compartment model parameters, DAS 2.0, rats p.o. SPC 60 g crude drug/kg, Mean, 5 rats, read-out: AUC(0-t)
  AUC(0-t): 19.8 ng·h/mL
[3]; rat, plasma, po, 0.22 mg/kg, compartment model parameters, DAS 2.0, rats p.o. SPC 60 g crude drug/kg, Mean, 5 rats, read-out: AUC(0-∞)
  AUC(0-inf): 22.4 ng·h/mL
[3]; rat, plasma, po, 0.22 mg/kg, compartment model parameters, DAS 2.0, rats p.o. SPC 60 g crude drug/kg, Mean, 5 rats, read-out: CL/F (converted)
  CL/F: 209 mL/min/kg
[3]; rat, plasma, po, 0.22 mg/kg, compartment model parameters, DAS 2.0, rats p.o. SPC 60 g crude drug/kg, Mean, 5 rats, read-out: t1/2β (converted)
  half-life: 35.4 h
[3]; rat, plasma, po, 0.22 mg/kg, statistical moment parameters, DAS 2.0, rats p.o. SPC 60 g crude drug/kg, Mean, 5 rats, read-out: AUC(0-t)
  AUC(0-t): 15.3 ng·h/mL
[3]; rat, plasma, po, 0.22 mg/kg, statistical moment parameters, DAS 2.0, rats p.o. SPC 60 g crude drug/kg, Mean, 5 rats, read-out: AUC(0-∞)
  AUC(0-inf): 15.5 ng·h/mL
[3]; rat, plasma, po, 0.22 mg/kg, statistical moment parameters, DAS 2.0, rats p.o. SPC 60 g crude drug/kg, Mean, 5 rats, read-out: CLz/F (converted)
  CL/F: 238 mL/min/kg
[3]; rat, plasma, po, 0.22 mg/kg, statistical moment parameters, DAS 2.0, rats p.o. SPC 60 g crude drug/kg, Mean, 5 rats, read-out: Cmax
  Cmax: 25.3 ng/mL
[3]; rat, plasma, po, 0.22 mg/kg, statistical moment parameters, DAS 2.0, rats p.o. SPC 60 g crude drug/kg, Mean, 5 rats, read-out: MRT(0-t)
  MRT last: 1.01 h
[3]; rat, plasma, po, 0.22 mg/kg, statistical moment parameters, DAS 2.0, rats p.o. SPC 60 g crude drug/kg, Mean, 5 rats, read-out: MRT(0-∞)
  MRT inf: 1.3 h
[3]; rat, plasma, po, 0.22 mg/kg, statistical moment parameters, DAS 2.0, rats p.o. SPC 60 g crude drug/kg, Mean, 5 rats, read-out: Tmax
  Tmax: 0.25 h
[3]; rat, plasma, po, 0.22 mg/kg, statistical moment parameters, DAS 2.0, rats p.o. SPC 60 g crude drug/kg, Mean, 5 rats, read-out: Vz/F
  Vd/F: 22.1 L/kg
[3]; rat, plasma, po, 0.22 mg/kg, statistical moment parameters, DAS 2.0, rats p.o. SPC 60 g crude drug/kg, Mean, 5 rats, read-out: t1/2z (converted)
  half-life: 1.07 h
[3]; rat, plasma, po, 2.62 mg/kg, rats, p.o. SPC 60 g crude drug/kg, doses of 1-4: 0.124, 0.22, 1.42, 2.62 mg/kg, n = 5, read-out: AUC0→t Val.
  AUC(0-t): 15.3 ng·h/mL
[3]; rat, plasma, po, 2.62 mg/kg, rats, p.o. SPC 60 g crude drug/kg, doses of 1-4: 0.124, 0.22, 1.42, 2.62 mg/kg, n = 5, read-out: AUC0→∞ Val.
  AUC(0-inf): 15.5 ng·h/mL
[3]; rat, plasma, po, rats, p.o. SPC 60 g crude drug/kg, doses of 1-4: 0.124, 0.22, 1.42, 2.62 mg/kg, n = 5, read-out: Tmax Val.
  Tmax: 0.25 h
[3]; [5]
  Cz: 0.107 µg/L
  VRT(0-t): 1.65 h^2
  VRT(0-∞): 3.316 h^2
  elimination rate constant: 0.675 h⁻¹
[3]; [6]
  AUMC(0-t): 15.37
  AUMC(0-∞): 20.163

Source: article PMC11677527, “Predicting Pharmacokinetics of Active Constituents in Spatholobi caulis by Using Physiologically Based Pharmacokinetic Models” (Pharmaceuticals, 2024)
